Measured values reported in ChEMBL document CHEMBL4376834, “Discovery of 4H-Chromen-4-one Derivatives as a New Class of Selective Rho Kinase (ROCK) Inhibitors, which Showed Potent Activity in ex Vivo Diabetic Retinopathy Models” (J Med Chem, 2019).

Experiments:
[1] = molecular target: Protein kinase C epsilon type (Homo sapiens, UniProt Q02156); test: Inhibition of recombinant human PKCepsilon (2 to end residues) using ERMRPRKRQGSVRR as substrate incubated for 40 mins in presence of [gamma33P]ATP by radiometric scintillation counting analysis
[2] = molecular target: Serine/threonine-protein kinase MARK2 (Homo sapiens, UniProt Q7KZI7); test: Inhibition of recombinant full-length human PAR1Balpha using KKKVSRSGLYRSP as substrate measured after 40 mins in presence of [gamma33P]ATP by radiometric scintillation counting analysis
[3] = molecular target: MAP/microtubule affinity-regulating kinase 4 (Homo sapiens, UniProt Q96L34); test: Inhibition of recombinant full length human MARK4 using KKKVSRSGLYRSP as substrate incubated for 40 mins in presence of [gamma-33ATP by radiometric scintillation counting analysis
[4] = molecular target: Epidermal growth factor receptor (Homo sapiens, UniProt P00533, T790M); test: Inhibition of recombinant human EGFR T790M mutant (696 to end residues) using poly(Glu, Tyr) 4:1 as substrate after 40 mins in presence of [gamma-33ATP] by radiometric scintillation counting analysis
[5] = molecular target: Mast/stem cell growth factor receptor Kit (Homo sapiens, UniProt P10721, V654A); test: Inhibition of recombinant human C-Kit V654A mutant (544 to end residues) using poly(Glu, Tyr) 4:1 as substrate incubated 40 mins in presence of [gamma-33ATP] by radiometric scintillation counting analysis
[6] = molecular target: Serine/threonine-protein kinase Nek1 (Homo sapiens, UniProt Q96PY6); test: Inhibition of recombinant human NEK1 (1 to 505 residues) using RLGRDKYKTLRQI as substrate measured after 40 mins in presence of [gamma33P]ATP by radiometric scintillation counting analysis
[7] = molecular target: Serine/threonine-protein kinase TAO1 (Homo sapiens, UniProt Q7L7X3); test: Inhibition of recombinant human TAO1 (1 to 327 residues) using myelin basic protein as substrate incubated for 40 mins in presence of [gamma33P]ATP by radiometric scintillation counting analysis
[8] = molecular target: Dual specificity protein kinase TTK (Homo sapiens, UniProt P33981, S389A); test: Inhibition of recombinant full-length human TTK S389A mutant using MBP as substrate incubated for 40 mins in presence of [gamma33P]ATP by radiometric scintillation counting analysis
[9] = Intrinsic clearance in human liver microsomes measured upto 45 mins in presence of NADPH by LC-MS analysis; type: ADME, Microsome; conditions: read-out: CLH
[10] = molecular target: Mast/stem cell growth factor receptor Kit (Homo sapiens, UniProt P10721, V560G); test: Inhibition of recombinant human C-Kit V560G mutant (544 to end residues) using poly(Glu, Tyr) 4:1 as substrate incubated 40 mins in presence of [gamma-33ATP] by radiometric scintillation counting analysis
[11] = molecular target: Serine/threonine-protein kinase 17B (Homo sapiens, UniProt O94768); test: Inhibition of recombinant full length human DRAK2 using KKRPQRRYSNVF as substrate at 120 mins in presence of [gamma-33ATP] by radiometric scintillation counting analysis
[12] = molecular target: Serine/threonine-protein kinase N2 (Homo sapiens, UniProt Q16513); test: Inhibition of recombinant human PRK2 (501 to end residues) using AKRRRLSSLRA as substrate incubated for 40 mins in presence of [gamma33P]ATP by radiometric scintillation counting analysis
[13] = molecular target: Mitogen-activated protein kinase kinase kinase kinase 5 (Homo sapiens, UniProt Q9Y4K4); test: Inhibition of recombinant full length human MAP4K5 using myelin basic protein as substrate incubated for 40 mins in presence of [gamma-33ATP by radiometric scintillation counting analysis
[14] = molecular target: Serine/threonine-protein kinase MRCK beta (Homo sapiens, UniProt Q9Y5S2); test: Inhibition of recombinant human MRCKbeta (1 to 473 residues) using KKRNRTLTV as substrate incubated for 40 mins in presence of [gamma-33ATP by radiometric scintillation counting analysis
[15] = molecular target: Serine/threonine-protein kinase NIM1 (Homo sapiens, UniProt Q8IY84); test: Inhibition of recombinant full length human NIM1 using KKKVSRSGLYRSP as substrate measured after 40 mins in presence of [gamma33P]ATP by radiometric scintillation counting analysis
[16] = molecular target: Insulin receptor (Homo sapiens, UniProt P06213); test: Inhibition of human recombinant IR (1005 to 1310 residues) using KKSRGDYMTMQIG as substrate after 40 mins by [gamma-33ATP] by radiometric scintillation counting analysis
[17] = molecular target: Tyrosine-protein kinase ABL1 (Homo sapiens, UniProt P00519, Y253F); test: Inhibition of human recombinant ABL1 Y253F mutant (27 to end residues) using EAIYAAPFAKKK as substrate incubated for 40 mins in presence of [gamma-33P]ATP by radiometric scintillation counting analysis
[18] = molecular target: Fibroblast growth factor receptor 2 (Homo sapiens, UniProt P21802, N549H); test: Inhibition of recombinant human FGFR2 N549H mutant (456 to 765 residues) using GGEEEEYFELVKK as substrate after 40 mins in presence of [gamma-33ATP] by radiometric scintillation counting analysis
[19] = molecular target: Beta-adrenergic receptor kinase 1 (Homo sapiens, UniProt P25098); test: Inhibition of recombinant full length human GRK2 using casein as substrate after 40 mins in presence of [gamma-33ATP] by radiometric scintillation counting analysis
[20] = molecular target: Dual specificity mitogen-activated protein kinase kinase 1 (Homo sapiens, UniProt Q02750); test: Inhibition of recombinant full length human MEK1 using inactive MAPK2 as substrate incubated for 40 mins in presence of [gamma-33ATP by radiometric scintillation counting analysis
[21] = molecular target: Serine/threonine-protein kinase Chk2 (Homo sapiens, UniProt O96017, R145W); test: Inhibition of recombinant human CHK2 R145W mutant (5 to end residues) using KKKVSRSGLYRSP as substrate incubated for 40 mins in presence of [gamma-33ATP] by radiometric scintillation counting analysis
[22] = Inhibition of recombinant human Plk4 S34T mutant (1 to 273 residues) using casein as substrate incubated for 40 mins in presence of [gamma33P]ATP by radiometric scintillation counting analysis
[23] = molecular target: Serine/threonine-protein kinase PAK 3 (Homo sapiens, UniProt O75914); test: Inhibition of recombinant full-length human PAK3 using RRRLSFAEPG as substrate measured after 40 mins in presence of [gamma33P]ATP by radiometric scintillation counting analysis
[24] = molecular target: Tyrosine-protein kinase Yes (Homo sapiens, UniProt P07947); test: Inhibition of recombinant full-length human Yes using poly(Glu, Tyr) 4:1 as substrate incubated for 40 mins in presence of [gamma33P]ATP by radiometric scintillation counting analysis
[25] = molecular target: Tyrosine-protein kinase Blk (Homo sapiens, UniProt P51451); test: Inhibition of human full-length recombinant BLK M287V mutant using poly(Glu, Tyr) 4:1 as substrate measured after 40 mins in presence of [gamma33P]ATP by radiometric scintillation counting analysis

Sequence of Epidermal growth factor receptor (P00533 25-1210 T790M limits assumed): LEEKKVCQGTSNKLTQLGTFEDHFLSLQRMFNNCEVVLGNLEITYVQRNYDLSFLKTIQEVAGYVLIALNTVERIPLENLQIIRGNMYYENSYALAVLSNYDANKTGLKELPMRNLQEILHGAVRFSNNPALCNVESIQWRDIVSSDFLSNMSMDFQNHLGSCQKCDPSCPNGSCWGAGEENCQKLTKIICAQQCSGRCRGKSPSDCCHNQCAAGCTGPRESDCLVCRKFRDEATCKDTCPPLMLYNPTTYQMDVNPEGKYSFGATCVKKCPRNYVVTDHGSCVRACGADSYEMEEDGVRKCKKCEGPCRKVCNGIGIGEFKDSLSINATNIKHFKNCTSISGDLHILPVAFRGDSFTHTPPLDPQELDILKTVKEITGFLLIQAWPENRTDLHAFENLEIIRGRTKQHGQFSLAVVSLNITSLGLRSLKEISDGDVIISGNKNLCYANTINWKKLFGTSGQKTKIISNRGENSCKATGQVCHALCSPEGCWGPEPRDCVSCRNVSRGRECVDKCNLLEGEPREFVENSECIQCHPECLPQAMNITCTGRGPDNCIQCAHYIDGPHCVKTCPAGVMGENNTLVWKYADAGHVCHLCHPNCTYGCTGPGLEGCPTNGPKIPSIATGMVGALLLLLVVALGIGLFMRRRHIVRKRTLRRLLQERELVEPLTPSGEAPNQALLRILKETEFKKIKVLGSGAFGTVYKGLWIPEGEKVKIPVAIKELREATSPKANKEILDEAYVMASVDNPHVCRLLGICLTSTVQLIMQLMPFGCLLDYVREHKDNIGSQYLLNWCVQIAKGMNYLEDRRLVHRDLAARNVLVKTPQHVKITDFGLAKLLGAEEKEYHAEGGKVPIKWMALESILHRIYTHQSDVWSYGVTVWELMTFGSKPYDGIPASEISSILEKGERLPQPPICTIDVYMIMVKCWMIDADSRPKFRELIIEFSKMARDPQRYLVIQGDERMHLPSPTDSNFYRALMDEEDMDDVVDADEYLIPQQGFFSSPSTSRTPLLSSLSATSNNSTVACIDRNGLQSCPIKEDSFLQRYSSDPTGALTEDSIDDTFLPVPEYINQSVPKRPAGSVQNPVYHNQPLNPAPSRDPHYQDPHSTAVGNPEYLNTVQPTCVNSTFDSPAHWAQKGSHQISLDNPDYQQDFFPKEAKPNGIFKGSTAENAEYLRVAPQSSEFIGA
Sequence of Insulin receptor (P06213 28-758 limits assumed): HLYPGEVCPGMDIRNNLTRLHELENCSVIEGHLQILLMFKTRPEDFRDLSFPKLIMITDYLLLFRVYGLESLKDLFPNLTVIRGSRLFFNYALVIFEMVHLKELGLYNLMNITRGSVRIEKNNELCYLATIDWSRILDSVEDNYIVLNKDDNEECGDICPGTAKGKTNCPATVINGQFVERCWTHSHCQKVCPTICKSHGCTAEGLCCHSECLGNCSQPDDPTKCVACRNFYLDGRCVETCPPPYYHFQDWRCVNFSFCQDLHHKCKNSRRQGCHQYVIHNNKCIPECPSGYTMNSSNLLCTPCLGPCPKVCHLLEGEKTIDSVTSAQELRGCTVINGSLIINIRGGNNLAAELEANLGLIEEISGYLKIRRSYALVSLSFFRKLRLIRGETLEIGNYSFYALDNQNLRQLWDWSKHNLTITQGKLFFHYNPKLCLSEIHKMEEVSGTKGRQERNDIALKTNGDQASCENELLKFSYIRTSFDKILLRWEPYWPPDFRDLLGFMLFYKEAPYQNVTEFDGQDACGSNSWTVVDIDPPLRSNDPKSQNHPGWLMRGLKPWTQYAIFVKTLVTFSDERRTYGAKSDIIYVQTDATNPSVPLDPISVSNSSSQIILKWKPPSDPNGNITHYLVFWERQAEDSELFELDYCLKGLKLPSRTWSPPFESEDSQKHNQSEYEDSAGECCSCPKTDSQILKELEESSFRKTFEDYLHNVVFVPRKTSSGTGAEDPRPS
Sequence of Insulin receptor (P06213 763-1382 limits assumed): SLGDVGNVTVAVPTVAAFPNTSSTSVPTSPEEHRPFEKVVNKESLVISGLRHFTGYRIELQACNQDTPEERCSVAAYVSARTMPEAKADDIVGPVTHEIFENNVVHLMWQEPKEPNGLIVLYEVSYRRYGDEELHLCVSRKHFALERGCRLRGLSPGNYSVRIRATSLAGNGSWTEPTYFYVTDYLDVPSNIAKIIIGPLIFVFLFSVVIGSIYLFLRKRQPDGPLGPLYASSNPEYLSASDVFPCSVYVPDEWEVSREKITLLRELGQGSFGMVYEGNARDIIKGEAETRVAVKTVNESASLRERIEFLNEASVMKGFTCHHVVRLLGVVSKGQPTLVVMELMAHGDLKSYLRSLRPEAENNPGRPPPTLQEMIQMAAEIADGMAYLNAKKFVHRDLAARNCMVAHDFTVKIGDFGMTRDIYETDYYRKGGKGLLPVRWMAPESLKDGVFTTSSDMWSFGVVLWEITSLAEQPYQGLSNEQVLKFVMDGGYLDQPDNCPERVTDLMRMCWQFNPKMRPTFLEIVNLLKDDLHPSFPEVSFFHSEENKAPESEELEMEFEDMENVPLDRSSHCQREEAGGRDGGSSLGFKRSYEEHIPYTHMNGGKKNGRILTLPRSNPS
Sequence of MAP/microtubule affinity-regulating kinase 4 (Q96L34 whole entry): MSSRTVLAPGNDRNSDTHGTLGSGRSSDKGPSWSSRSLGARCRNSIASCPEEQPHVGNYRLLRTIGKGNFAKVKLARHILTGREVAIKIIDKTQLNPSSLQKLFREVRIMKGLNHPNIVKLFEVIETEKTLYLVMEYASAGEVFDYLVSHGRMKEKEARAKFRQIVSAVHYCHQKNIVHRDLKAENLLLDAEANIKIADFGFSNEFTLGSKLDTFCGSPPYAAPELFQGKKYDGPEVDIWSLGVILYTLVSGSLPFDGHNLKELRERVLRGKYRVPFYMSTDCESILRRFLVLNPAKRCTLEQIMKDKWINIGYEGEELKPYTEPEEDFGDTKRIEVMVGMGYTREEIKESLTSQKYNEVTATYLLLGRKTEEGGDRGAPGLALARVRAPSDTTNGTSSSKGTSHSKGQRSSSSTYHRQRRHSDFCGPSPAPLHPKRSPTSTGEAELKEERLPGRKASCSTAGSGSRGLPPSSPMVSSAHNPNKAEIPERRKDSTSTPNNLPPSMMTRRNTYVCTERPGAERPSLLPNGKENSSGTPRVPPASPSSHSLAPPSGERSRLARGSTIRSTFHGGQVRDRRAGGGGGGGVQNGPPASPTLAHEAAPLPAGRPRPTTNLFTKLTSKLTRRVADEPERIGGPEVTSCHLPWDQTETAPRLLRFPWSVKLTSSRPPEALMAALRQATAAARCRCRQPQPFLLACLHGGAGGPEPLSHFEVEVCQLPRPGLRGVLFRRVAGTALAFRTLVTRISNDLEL
Sequence of Fibroblast growth factor receptor 2 (P21802 22-821 N549H limits assumed): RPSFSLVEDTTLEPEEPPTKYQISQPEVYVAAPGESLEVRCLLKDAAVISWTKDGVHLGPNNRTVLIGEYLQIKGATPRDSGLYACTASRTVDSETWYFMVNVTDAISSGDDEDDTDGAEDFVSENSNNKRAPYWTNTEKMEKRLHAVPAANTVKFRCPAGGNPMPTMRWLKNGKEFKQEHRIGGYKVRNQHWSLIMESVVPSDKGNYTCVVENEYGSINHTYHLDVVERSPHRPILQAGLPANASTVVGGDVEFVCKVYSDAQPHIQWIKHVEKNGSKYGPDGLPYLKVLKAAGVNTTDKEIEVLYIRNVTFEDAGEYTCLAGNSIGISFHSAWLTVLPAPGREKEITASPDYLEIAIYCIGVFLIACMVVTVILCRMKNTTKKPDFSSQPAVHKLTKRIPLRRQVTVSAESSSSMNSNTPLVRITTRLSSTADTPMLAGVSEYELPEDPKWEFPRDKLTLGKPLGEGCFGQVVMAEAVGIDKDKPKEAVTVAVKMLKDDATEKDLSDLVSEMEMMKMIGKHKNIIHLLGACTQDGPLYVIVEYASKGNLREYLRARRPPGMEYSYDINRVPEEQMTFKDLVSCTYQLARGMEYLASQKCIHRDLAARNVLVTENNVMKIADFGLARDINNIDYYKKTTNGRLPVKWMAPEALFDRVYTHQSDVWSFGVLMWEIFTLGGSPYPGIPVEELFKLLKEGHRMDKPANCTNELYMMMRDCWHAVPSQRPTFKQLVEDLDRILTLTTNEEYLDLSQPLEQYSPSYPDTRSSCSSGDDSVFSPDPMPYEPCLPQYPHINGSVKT
Sequence of Serine/threonine-protein kinase MARK2 (Q7KZI7 whole entry): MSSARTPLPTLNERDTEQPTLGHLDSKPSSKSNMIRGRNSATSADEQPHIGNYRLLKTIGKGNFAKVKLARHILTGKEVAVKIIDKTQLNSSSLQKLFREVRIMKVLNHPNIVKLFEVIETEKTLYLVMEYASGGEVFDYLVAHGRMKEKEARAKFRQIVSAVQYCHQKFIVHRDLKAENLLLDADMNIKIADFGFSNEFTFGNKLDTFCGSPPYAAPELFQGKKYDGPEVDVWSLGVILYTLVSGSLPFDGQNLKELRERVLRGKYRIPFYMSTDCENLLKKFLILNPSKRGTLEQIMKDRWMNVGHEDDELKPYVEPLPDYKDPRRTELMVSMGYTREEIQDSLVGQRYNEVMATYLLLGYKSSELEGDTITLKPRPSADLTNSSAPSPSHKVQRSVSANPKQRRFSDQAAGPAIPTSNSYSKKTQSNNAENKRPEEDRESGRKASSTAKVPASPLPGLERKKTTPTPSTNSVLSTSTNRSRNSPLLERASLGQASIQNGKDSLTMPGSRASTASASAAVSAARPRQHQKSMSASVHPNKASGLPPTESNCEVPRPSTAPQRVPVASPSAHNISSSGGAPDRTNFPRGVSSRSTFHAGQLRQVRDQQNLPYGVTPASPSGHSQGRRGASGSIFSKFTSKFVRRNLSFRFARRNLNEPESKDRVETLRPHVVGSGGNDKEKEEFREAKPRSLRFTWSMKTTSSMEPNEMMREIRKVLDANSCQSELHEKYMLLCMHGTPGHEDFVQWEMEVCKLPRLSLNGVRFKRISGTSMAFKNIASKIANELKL

CN(C)c1ccc(C(=O)Nc2cccc(NC(=O)COc3ccc4c(=O)ccoc4c3)c2)cc1
216 mL/min/kg: CLint scaled [9]
> 10 µM: IC50 [1] | IC50 [2] | IC50 [3] | IC50 [4] | IC50 [5] | IC50 [6] | IC50 [7] | IC50 [8] | IC50 [10] | IC50 [11] | IC50 [12] | IC50 [13] | IC50 [14] | IC50 [15] | IC50 [16] | IC50 [17] | IC50 [18] | IC50 [19] | IC50 [20] | IC50 [21] | IC50 [22] | IC50 [23] | IC50 [24] | IC50 [25]
